The values below come from US9302999B2, “Substituted triazoles as herbicides” (E. I. DU PONT DE NEMOURS AND COMPANY, priority 2012, dated 2016).

For assay [1], the system named is goosegrass (Eleusine indica). Put plainly: Test F pre-/postemergence: goosegrass. The class given is in vivo. As to conditions: Preemergence. The source says: (§1) Seeds of plant species selected from corn (Zea mays), soybean (Glycine max), velvetleaf (Abutilon theophrasti), lambsquarters (Chenopodium album), poinsettia, wild (wild poinsettia, Euphorbia heterophylla), pigweed, palmer (palmer pigweed, Amaranthus palmeri), waterhemp (common waterhemp, Amaranthus rudis), surinam grass (Brachiaria decumbens), crabgrass, Brazil (Brazilian crabgrass, Digitaria horizontalis), panicum, fall (fall panicum Panicum dichotomiflorum), crabgrass, large (large crabgrass, Digitaria sanguinalis), foxtail, giant (giant foxtail, Setaria faberii), foxtail, green (green foxtail Setaria viridis), goosegrass (Eleusine indica), ragweed (common ragweed, Ambrosia elatior), barnyardgrass (Echinochloa crus-galli), sandbur (southern sandbur, Cenchrus echinatus), arrowleaf sida (Sida rhombifolia), ryegrass, Italian (Italian ryegrass, Lolium multiflorum), dayflower, VA (Virginia (VA) dayflower, Commelina virginica), field bindweed (Convolvulus arvensis), cocklebur (common cocklebur, Xanthium strumarium), morningglory (Ipomoea coccinea), nightshade (eastern black nightshade, Solanum ptycanthum), kochia (Kochia scoparia), nutsedge, yellow (yellow nutsedge, Cyperus esculentus), johnsongrass (Sorghum halepense), smartweed (ladysthumb smartweed, Polygonum persicaria), and beggarticks (hairy beggarticks, Bidens pilosa), were planted into a silt loam soil and treated preemergence with test chemicals formulated in a non-phytotoxic solvent mixture which included a surfactant. At the same time, plants selected from these crop and weed species and also pigweed (Amaranthus retroflexus), waterhemp_RES1 (ALS/Triazine resistant common waterhemp, Amaranthus rudis) and waterhemp_RES2 (ALS/HPPD resistant common waterhemp, Amaranthus rudis) were planted in pots containing a planting medium comprising spaghnum peat moss, vermiculite, wetting agent and starter nutrients treated with postemergence applications of some of the test chemicals formulated in the same manner. Plants ranged in height from 2 to 18 cm for postemergence treatments (1- to 4-leaf stage).
(§2) Treated plants and controls were maintained in a greenhouse for 14 to 21 days, after which time all species were compared to controls and visually evaluated. Plant response ratings, summarized in Table E, are based on a scale of 0 to 100 where 0 is no effect and 100 is complete control. A dash (-) response means no test result.

Assay [2] has as its system dayflower, VA (Virginia (VA) dayflower, Commelina virginica). The assay can be described thus: Test F pre-/postemergence: dayflower, VA. In kind it is in vivo.
Text: as §1, §2

Assay [3] relates to panicum, fall (fall panicum, Panicum dichotomiflorum). Put plainly: Test E pre-/postemergence: panicum, fall. The class given is in vivo. As to conditions: scale 0 to 100.
Text: (§3) Seeds of plant species selected from corn (Zea mays), soybean (Glycine max), velvetleaf (Abutilon theophrasti), lambsquarters (Chenopodium album), poinsettia, wild (wild poinsettia, Euphorbia heterophylla), pigweed, palmer (palmer pigweed, Amaranthus palmeri), waterhemp (common waterhemp, Amaranthus rudis), smartweed (ladysthumb smartweed, Polygonum persicaria), surinam grass (Brachiaria decumbens), crabgrass, large (large crabgrass, Digitaria sanguinalis), crabgrass, Brazil (Brazilian crabgrass, Digitaria horizontalis), panicum, fall (fall panicum, Panicum dichotomiflorum), foxtail, giant (giant foxtail, Setaria faberii), foxtail, green (green foxtail, Setaria viridis), goosegrass (Eleusine indica), johnsongrass (Sorghum halepense), ragweed (common ragweed, Ambrosia elation), barnyardgrass (Echinochloa crus-galli), sandbur (southern sandbur, Cenchrus echinatus), arrowleaf sida (Sida rhombifolia), ryegrass, Italian (Italian ryegrass, Lolium multiflorum), dayflower, (VA) (Virginia dayflower, Commelina virginica), field bindweed (Convolvulus arvensis), cocklebur (common cocklebur, Xanthium strumarium), morningglory (Ipomoea coccinea), nightshade (eastern black nightshade, Solanum ptycanthum), kochia (Kochia scoparia), nutsedge, yellow (yellow nutsedge, Cyperus esculentus) and beggarticks (hairy beggarticks, Bidens pilosa) were planted into a silt loam soil and treated preemergence with test chemicals formulated in a non-phytotoxic solvent mixture which included a surfactant. At the same time, plants selected from these crop and weed species were planted in pots containing a growing medium comprising spaghnum peat moss, vermiculite, wetting agent and starter nutrients and treated with postemergence applications of some of the test chemicals formulated in the same manner. Plants ranged in height from 2 to 18 cm for postemergence treatments (1- to 4-leaf stage).
as §2

Assay [4] deals with sandbur (southern sandbur, Cenchrus echinatus). Put plainly: Test E pre-/postemergence: sandbur. In kind it is in vivo. The following applies: scale 0 to 100.
Text: as §3, §2

The subject of assay [5] is cocklebur (common cocklebur, Xanthium strumarium). The assay can be described thus: Test E pre-/postemergence: cocklebur. As to conditions: Preemergence, scale 0 to 100. In kind it is in vivo.
Text: as §3, §2

The subject of a further assay is Oilseed Rape. Put plainly: Test C postemergence: oilseed rape. In kind it is in vivo, Brassica napus. The source says: Seeds of plant species selected from blackgrass (Alopecurus myosuroides), bromegrass, downy (downy bromegrass, Bromus tectorum), foxtail, green (green foxtail, Setaria viridis), ryegrass, Italian (Italian ryegrass, Lolium multiflorum), winter wheat (Triticum aestivum), wild oat (Avena fatua), galium (catchweed bedstraw, Galium aparine), bermudagrass (Cynodon dactylon), surinam grass (Brachiaria decumbens), cocklebur (common cocklebur, Xanthium strumarium), corn (Zea mays), large crabgrass (Digitaria sanguinalis), woolly cupgrass (Eriochloa villosa), foxtail, giant (giant foxtail, Setaria faberii), goosegrass (Eleusine indica), johnsongrass (Sorghum halepense), kochia (Kochia scoparia), lambsquarters (Chenopodium album), morningglory (Ipomoea coccinea), nightshade (eastern black nightshade, Solanum ptycanthum), nutsedge, yellow (yellow nutsedge, Cyperus esculentus), pigweed (Amaranthus retroflexus), ragweed (common ragweed, Ambrosia elation), soybean (Glycine max), common (oilseed) sunflower (Helianthus annuus), Russian thistle (Salsola kali) and velvetleaf (Abutilon theophrasti) were planted into a blend of loam soil and sand and treated preemergence with test chemicals formulated in a non-phytotoxic solvent mixture which included a surfactant.
At the same time, plants selected from these crop and weed species and also barley (winter barley, Hordeum vulgare), canarygrass (Phalaris minor), chickweed (common chickweed, Stellaria media) windgrass (Apera spica-venti) and deadnettle (henbit deadnettle, Lamium amplexicaule) were planted in pots containing Redi-Earth® planting medium (Scotts Company, 14111 Scottslawn Road, Marysville, Ohio 43041) comprising spaghnum peat moss, vermiculite, wetting agent and starter nutrients and treated with postemergence applications of test chemicals formulated in the same manner. Plants ranged in height from 2 to 18 cm (1- to 4-leaf stage) for postemergence treatments.
Treated plants and controls were maintained in a greenhouse for 13 to 15 days, after which time all species were compared to controls and visually evaluated. Plant response ratings, summarized in Table C, are based on a scale of 0 to 100 where 0 is no effect and 100 is complete control. A dash (-) response means no test result.

[6] abbreviates: 125 g ai/ha, scale 0 to 100, 0 no effect, 100 complete control.

As for `Fc1ccc(-n2nc(Cc3ccnc(C(F)(F)F)c3)c(OCC(F)(F)F)n2)cc1` [Compound 142], the “Plant response rating, Goosegrass” value in assay [1] (16 g ai/ha, scale 0 to 100 (0 no effect, 100 complete control)) stood at 40; in assay [1] (31 g ai/ha, scale 0 to 100 (0 no effect, 100 complete control)), 70; in assay [1] (62 g ai/ha, scale 0 to 100) it was 100; in assay [1] (125 g ai/ha, scale 0 to 100), 100. For the same compound, the “Plant response rating, Dayflower, VA” value was 0 in assay [2] (Preemergence, 16 g ai/ha, scale 0 to 100 (0 no effect, 100 complete control)); 5 in assay [2] (Preemergence, 31 g ai/ha, scale 0 to 100 (0 no effect, 100 complete control)); 50 in assay [2] (Preemergence, 62 g ai/ha, scale 0 to 100); 70 in assay [2] (Preemergence, 125 g ai/ha, scale 0 to 100).
Consider `Cc1nn(-c2ccc(F)cc2)nc1Cc1ccnc(C(F)(F)F)c1` [Compound 16, 4-[[2-(4-fluorophenyl)-5-methyl-2H-1,2,3-triazol-4-yl]methyl]-2-(trifluoromethyl)pyridine], for which the “Plant response rating: Panicum, Fall” value stood at 0 in assay [3] (Preemergence, 8 g ai/ha); 70 in assay [3] (Preemergence, 16 g ai/ha); 100 in assay [3] (Preemergence, 31 g ai/ha); 100 in assay [3] (Preemergence, 62 g ai/ha); 100 in assay [3] (Preemergence, 125 g ai/ha). Besides, the “Plant response rating: Sandbur” value in assay [4] (Preemergence, 8 g ai/ha) worked out at 0; in assay [4] (Preemergence, 16 g ai/ha) it was 0; in assay [4] (Preemergence, 31 g ai/ha), 10; in assay [4] (Preemergence, 62 g ai/ha), 50; in assay [4] (Preemergence, 125 g ai/ha), 60. The “Plant response rating: Cocklebur” value in assay [5] (16 g ai/ha), in assay [5] (31 g ai/ha), in assay [5] (62 g ai/ha) and in assay [5] (125 g ai/ha) was 0 in each case.
In the case of `CCc1nn(-c2ccc(F)cc2)nc1Oc1ccnc(C(F)(F)F)c1` [Compound 166], in the assay with Oilseed Rape (setting [6]), the “Plant response rating, Oilseed Rape” value worked out at 5.
As for `Cc1nn(-c2ccc(F)cc2)nc1Oc1ccnc(C(F)(F)F)c1` [Compound 129, 4-[[2-(4-fluorophenyl)-5-methyl-2H-1,2,3-triazol-4-yl]oxy]-2-(trifluoromethyl)pyridine], the “Plant response rating: Panicum, Fall” value in assay [3] (Preemergence, 8 g ai/ha) is on record as 0; in assay [3] (Preemergence, 16 g ai/ha) it was 35; in assay [3] (Preemergence, 31 g ai/ha), 98; in assay [3] (Preemergence, 62 g ai/ha), 100; in assay [3] (Preemergence, 125 g ai/ha) it was 100. Moreover, the “Plant response rating: Sandbur” value in assay [4] (Preemergence, 8 g ai/ha) worked out at 0; in assay [4] (Preemergence, 16 g ai/ha) it was 0; in assay [4] (Preemergence, 31 g ai/ha) it was 20; in assay [4] (Preemergence, 62 g ai/ha), 20; in assay [4] (Preemergence, 125 g ai/ha) it was 50. The “Plant response rating: Cocklebur” value in assay [5] (8 g ai/ha) is given as 0; in assay [5] (16 g ai/ha) it was 0; in assay [5] (31 g ai/ha) it was 0; in assay [5] (62 g ai/ha), 35; in assay [5] (125 g ai/ha), 35.
For `CCCc1nn(-c2ccc(C(F)(F)F)c(F)c2)nc1Oc1ccnc(C(F)(F)F)c1` [Compound 185], the “Plant response rating, Oilseed Rape” value in the assay on Oilseed Rape (setting [6]) worked out at 50; in the assay on Oilseed Rape (250 g ai/ha, scale 0 to 100 (0 no effect, 100 complete control)) it was 55.
Take `Cc1nn(-c2ccc(C(F)(F)F)cc2)nc1Cc1ccnc(C(F)(F)F)c1` [Compound 47, 4-[[5-methyl-2-[4-(trifluoromethyl)phenyl]-2H-1,2,3-triazol-4-yl]methyl]-2-(trifluoromethyl)pyridine]: the “Plant response rating: Panicum, Fall” value in assay [3] (Postemergence, 250 g ai/ha) was 40; in assay [3] (Postemergence, 16 g ai/ha), 10; in assay [3] (Postemergence, 31 g ai/ha), 20; in assay [3] (Postemergence, 62 g ai/ha) it was 30; in assay [3] (Postemergence, 125 g ai/ha), 30; in assay [3] (Preemergence, 16 g ai/ha) it was 100. For the same compound, the “Plant response rating: Panicum, Fall” value in assay [3] (Preemergence, 31 g ai/ha) came out at 100; in assay [3] (Preemergence, 62 g ai/ha) it was 100; in assay [3] (Preemergence, 125 g ai/ha), 100; in assay [3] (Preemergence, 250 g ai/ha), 100. The “Plant response rating: Sandbur” value in assay [4] (Postemergence, 250 g ai/ha) is 50; in assay [4] (Postemergence, 16 g ai/ha), 20; in assay [4] (Postemergence, 31 g ai/ha), 25; in assay [4] (Postemergence, 62 g ai/ha), 25; in assay [4] (Postemergence, 125 g ai/ha), 30; in assay [4] (Preemergence, 16 g ai/ha), 0. Further, the “Plant response rating: Sandbur” value in assay [4] (Preemergence, 31 g ai/ha) worked out at 20; in assay [4] (Preemergence, 62 g ai/ha), 90; in assay [4] (Preemergence, 250 g ai/ha), 100. Also, the “Plant response rating: Cocklebur” value in assay [5] (16 g ai/ha) worked out at 0; in assay [5] (31 g ai/ha), 10; in assay [5] (62 g ai/ha), 20; in assay [5] (125 g ai/ha) it was 35; in assay [5] (250 g ai/ha), 50.
As for `Cc1nn(-c2ccc(F)c(F)c2)nc1Oc1ccnc(C(F)(F)F)c1` [Compound 145], the “Plant response rating, Dayflower, VA” value in assay [2] (Postemergence, 8 g ai/ha, scale 0 to 100) came out at 15; in assay [2] (Postemergence, 16 g ai/ha, scale 0 to 100), 20; in assay [2] (Postemergence, 31 g ai/ha, scale 0 to 100), 50; in assay [2] (Postemergence, 62 g ai/ha, scale 0 to 100) it was 60; in assay [2] (Postemergence, 125 g ai/ha, scale 0 to 100) it was 70.
